{"source": "patent US20060194860A1", "about": "“Pharmaceutical compositions containing aryl or heteroaryl azolylcarbinol compounds” (GRUENENTHAL GMBH, priority 2003, published 2006)", "target": "T1, 5-HT reuptake (Homo sapiens, UniProt P31645)", "T1 construct": "in a system with neurological tissue under physiological conditions; from tissue", "T1 sequence (P31645 whole entry)": "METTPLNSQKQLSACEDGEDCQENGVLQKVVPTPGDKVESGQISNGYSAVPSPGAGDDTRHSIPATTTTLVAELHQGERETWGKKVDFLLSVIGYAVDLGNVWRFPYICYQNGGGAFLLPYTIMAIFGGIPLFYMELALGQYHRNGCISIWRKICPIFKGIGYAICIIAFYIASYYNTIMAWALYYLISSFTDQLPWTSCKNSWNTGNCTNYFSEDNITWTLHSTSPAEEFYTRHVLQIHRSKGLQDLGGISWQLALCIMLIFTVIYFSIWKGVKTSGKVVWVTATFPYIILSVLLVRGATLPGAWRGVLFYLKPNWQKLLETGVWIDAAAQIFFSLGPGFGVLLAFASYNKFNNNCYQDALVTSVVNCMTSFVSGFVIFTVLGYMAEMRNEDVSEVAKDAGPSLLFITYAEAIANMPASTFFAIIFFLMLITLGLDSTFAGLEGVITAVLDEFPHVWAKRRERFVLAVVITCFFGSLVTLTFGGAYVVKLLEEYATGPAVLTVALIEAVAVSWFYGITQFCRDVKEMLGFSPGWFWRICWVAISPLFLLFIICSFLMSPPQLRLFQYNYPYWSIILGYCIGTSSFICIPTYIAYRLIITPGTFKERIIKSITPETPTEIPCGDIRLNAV", "assay": "Functional measurement of the 5-HT uptake / inhibition of serotonin uptake (tritium-marked 5-HT, neurological tissue)", "assay_type": "biochemical", "conditions": "uptake of tritium-marked 5-HT in neurological tissue under physiological conditions; three independent tests", "from_the_text": "Functional Measurement of the 5-HT-Uptake or the Inhibition of Serotonin Uptake\nThe uptake of tritium-marked 5-HT (serotonin) as a function of the concentration of the added substance 5-{α-[2-(methylamino)ethoxy]benzyl}-1-methyl-1H-pyrazole in a system with neurological tissue under physiological conditions.", "data": [{"smiles": "CNCCOC(c1ccccc1)c1ccnn1C", "note": "(stereo not drawn) [5-{α-[2-(methylamino)ethoxy]benzyl}-1-methyl-1H-pyrazole]", "values": [{"measurement": "Ki", "result": "530 ± 100", "unit": "nM"}]}]}
